Source: PubChem BioAssay AID248 (DTP/NCI, 2004)
Values joined by “and” are separate entries in the source; they are usually repeats but may differ in a detail not shown here. Identical values can stand only once. Inconclusive results and toxic doses are left out.

System: L1210 leukemia ip in BDF1 mice, survival T/C
Assay: NCI In Vivo Anticancer Drug Screen. Data for tumor model L1210 Leukemia (intraperitoneal) in B6D2F1 (BDF1) mice
Conditions: endpoint: mean survival time, higher = longer survival
Method in brief: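 Each compound was tested against a transplantable tumor grown in mice. The endpoint was survival, with treated animals benchmarked against vehicle controls as a simple ratio.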

[1] = dose: 200.0 mg/kg/injection, schedule: Q01DX009 (ip), vehicle: saline with Tween-80
[2] = dose: 100.0 mg/kg/injection, schedule: Q01DX009 (ip), vehicle: Klucel (hydroxypropylcellulose) (HPC)
[3] = dose: 100.0 mg/kg/injection, schedule: Q04DX003 (ip), vehicle: Klucel (hydroxypropylcellulose) (HPC)
[4] = dose: 200.0 mg/kg/injection, schedule: Q01DX009 (ip), vehicle: Klucel (hydroxypropylcellulose) (HPC)
[5] = dose: 200.0 mg/kg/injection, schedule: Q04DX003 (ip), vehicle: Klucel (hydroxypropylcellulose) (HPC)
[6] = dose: 400.0 mg/kg/injection, schedule: Q01DX009 (ip), vehicle: Klucel (hydroxypropylcellulose) (HPC)
[7] = dose: 400.0 mg/kg/injection, schedule: Q04DX003 (ip), vehicle: Klucel (hydroxypropylcellulose) (HPC)
[8] = dose: 100.0 mg/kg/injection, schedule: Q01DX001 (ip), vehicle: saline

**Q.** Clc1nc(Sc2ccc(Br)cc2)c(Cl)c(Sc2ccc(Br)cc2)n1 was tested. Which T/C (dose: 62.5 mg/kg/injection, schedule: Q01DX001 (ip), vehicle: Klucel (hydroxypropylcellulose) (HPC)) did it give?
**A.** 95 % of control and 89 % of control

**Q.** What about the T/C (dose: 125.0 mg/kg/injection, schedule: Q01DX001 (ip), vehicle: Klucel (hydroxypropylcellulose) (HPC)) of the same compound?
**A.** 94 % of control

**Q.** What about the T/C (dose: 250.0 mg/kg/injection, schedule: Q01DX001 (ip), vehicle: Klucel (hydroxypropylcellulose) (HPC)) of the same compound?
**A.** 94 % of control and 98 % of control

**Q.** O=C1CCCN1C(=O)c1ccccc1 was tested. Which T/C (dose: 100.0 mg/kg/injection, schedule: Q01DX009 (ip), vehicle: saline with Tween-80) did it give?
**A.** 101 % of control

**Q.** What about the T/C [1] of the same compound?
**A.** 95 % of control

**Q.** What about the T/C (dose: 400.0 mg/kg/injection, schedule: Q01DX009 (ip), vehicle: saline with Tween-80) of the same compound?
**A.** 95 % of control

**Q.** Which results are given for COC(=O)C(C)O (centres undefined)?
**A.** T/C (dose: 100.0 mg/kg/injection, schedule: Q04DX003 (ip), vehicle: saline): 97 % of control; T/C (dose: 200.0 mg/kg/injection, schedule: Q04DX003 (ip), vehicle: saline): 105 % of control; T/C (dose: 400.0 mg/kg/injection, schedule: Q04DX003 (ip), vehicle: saline): 107 % of control

**Q.** NC(=O)c1cc([N+](=O)[O-])ccc1N=NN(CCCl)CCCl was tested. Which T/C (dose: 100.0 mg/kg/injection, schedule: Q04DX003 (ip), vehicle: saline with Tween-80) did it give?
**A.** 114 % of control

**Q.** And the T/C (dose: 177.0 mg/kg/injection, schedule: Q04DX003 (ip), vehicle: saline with Tween-80)?
**A.** 111 % of control

**Q.** What about the T/C [1] of the same compound?
**A.** 107 % of control

**Q.** And the T/C (dose: 266.0 mg/kg/injection, schedule: Q04DX003 (ip), vehicle: saline with Tween-80)?
**A.** 114 % of control

**Q.** And the T/C (dose: 400.0 mg/kg/injection, schedule: Q04DX003 (ip), vehicle: saline with Tween-80)?
**A.** 165 % of control

**Q.** With Cc1ccc(N=Cc2cc(Br)ccc2O)cc1Cl as the compound, how does the T/C (dose: 100.0 mg/kg/injection, schedule: Q04DX002 (ip), vehicle: saline with Tween-80) read?
**A.** 107 % of control

**Q.** What about the T/C (dose: 200.0 mg/kg/injection, schedule: Q04DX002 (ip), vehicle: saline with Tween-80) of the same compound?
**A.** 107 % of control

**Q.** And the T/C (dose: 400.0 mg/kg/injection, schedule: Q04DX002 (ip), vehicle: saline with Tween-80)?
**A.** 96 % of control

**Q.** Which results are given for CCCCNC(=O)Nc1ccc(OC)cc1Cl?
**A.** T/C [2]: 102 % of control; T/C [3]: 90 % of control; T/C [4]: 106 % of control; T/C [5]: 97 % of control; T/C [6]: 87 % of control; T/C [7]: 92 % of control

**Q.** How did the T/C (dose: 15.0 mg/kg/injection, schedule: Q01DX001 (ip), vehicle: Klucel (hydroxypropylcellulose) (HPC)) turn out when O=P1(NCCCl)OCCC(OO)N1CCCl (centres undefined) was run?
**A.** 155 % of control

**Q.** What about the T/C (dose: 23.0 mg/kg/injection, schedule: Q01DX001 (ip), vehicle: Klucel (hydroxypropylcellulose) (HPC)) of the same compound?
**A.** 158 % of control

**Q.** What about the T/C (dose: 34.0 mg/kg/injection, schedule: Q01DX001 (ip), vehicle: Klucel (hydroxypropylcellulose) (HPC)) of the same compound?
**A.** 175 % of control

**Q.** What about the T/C (dose: 50.0 mg/kg/injection, schedule: Q01DX001 (ip), vehicle: Klucel (hydroxypropylcellulose) (HPC)) of the same compound?
**A.** 188 % of control and 196 % of control

**Q.** What about the T/C (dose: 75.0 mg/kg/injection, schedule: Q01DX001 (ip), vehicle: Klucel (hydroxypropylcellulose) (HPC)) of the same compound?
**A.** 276 % of control

**Q.** What about the T/C (dose: 100.0 mg/kg/injection, schedule: Q01DX001 (ip), vehicle: Klucel (hydroxypropylcellulose) (HPC)) of the same compound?
**A.** 182 % of control

**Q.** What about the T/C (dose: 200.0 mg/kg/injection, schedule: Q01DX001 (ip), vehicle: Klucel (hydroxypropylcellulose) (HPC)) of the same compound?
**A.** 196 % of control

**Q.** And the T/C (dose: 400.0 mg/kg/injection, schedule: Q01DX001 (ip), vehicle: Klucel (hydroxypropylcellulose) (HPC))?
**A.** 95 % of control

**Q.** Which results are given for N#CC(C#N)=NNc1cccc(Cl)c1Cl?
**A.** T/C (dose: 5.0 mg/kg/injection, schedule: Q01DX009 (ip), vehicle: saline with Tween-80): 90 % of control; T/C (dose: 10.0 mg/kg/injection, schedule: Q01DX009 (ip), vehicle: saline with Tween-80): 88 % of control

**Q.** Which results are given for COc1ccc(C(=O)c2cc(Br)ccc2O)cc1?
**A.** T/C (dose: 100.0 mg/kg/injection, schedule: Q01DX001 (ip), vehicle: carboxymethylcellulose (CMC)): 98 % of control; T/C (dose: 200.0 mg/kg/injection, schedule: Q01DX001 (ip), vehicle: carboxymethylcellulose (CMC)): 100 % of control; T/C (dose: 400.0 mg/kg/injection, schedule: Q01DX001 (ip), vehicle: carboxymethylcellulose (CMC)): 98 % of control

**Q.** Which T/C (dose: 50.0 mg/kg/injection, schedule: Q01DX009 (ip), vehicle: Klucel (hydroxypropylcellulose) (HPC)) does the source give for Cc1ccc(NC(=O)Oc2c(C)cccc2C)c([N+](=O)[O-])c1 here?
**A.** 93 % of control

**Q.** And the T/C [2]?
**A.** 87 % of control

**Q.** How did the T/C (dose: 50.0 mg/kg/injection, schedule: Q04DX002 (ip), vehicle: Klucel (hydroxypropylcellulose) (HPC)) turn out when CC(=O)OCC(OS(=O)(=O)c1ccc(C)cc1)C(OC(C)=O)C(OC(C)=O)C(COC(C)=O)OS(=O)(=O)c1ccc(C)cc1 (centres undefined) was run?
**A.** 90 % of control

**Q.** And the T/C (dose: 100.0 mg/kg/injection, schedule: Q04DX002 (ip), vehicle: Klucel (hydroxypropylcellulose) (HPC))?
**A.** 101 % of control

**Q.** What about the T/C (dose: 200.0 mg/kg/injection, schedule: Q04DX002 (ip), vehicle: Klucel (hydroxypropylcellulose) (HPC)) of the same compound?
**A.** 101 % of control

**Q.** Which T/C (dose: 100.0 mg/kg/injection, schedule: Q01DX001 (ip), vehicle: other) does the source give for O=[N+]([O-])c1ccc(Cn2cnc3c(Cl)ncnc32)cc1 here?
**A.** 90 % of control

**Q.** For O=C(O)Cn1[nH]c(=O)ccc1=O, which T/C (dose: 100.0 mg/kg/injection, schedule: Q01DX001 (ip), vehicle: saline with Tween-80) is on record?
**A.** 103 % of control

**Q.** What about the T/C (dose: 200.0 mg/kg/injection, schedule: Q01DX001 (ip), vehicle: saline with Tween-80) of the same compound?
**A.** 103 % of control

**Q.** And the T/C (dose: 400.0 mg/kg/injection, schedule: Q01DX001 (ip), vehicle: saline with Tween-80)?
**A.** 102 % of control

**Q.** For Cc1cc(C)c(CCl)c(C)c1CCl, which T/C [8] is on record?
**A.** 119 % of control

**Q.** With CCN(CC)C(=O)N1CCN(c2ccc(Cl)cc2)CC1 as the compound, how does the T/C (dose: 75.0 mg/kg/injection, schedule: Q01DX001 (ip), vehicle: saline) read?
**A.** 106 % of control

**Q.** And the T/C (dose: 75.0 mg/kg/injection, schedule: Q04DX003 (ip), vehicle: saline)?
**A.** 103 % of control

**Q.** And the T/C (dose: 150.0 mg/kg/injection, schedule: Q01DX001 (ip), vehicle: saline)?
**A.** 94 % of control

**Q.** What about the T/C (dose: 150.0 mg/kg/injection, schedule: Q04DX003 (ip), vehicle: saline) of the same compound?
**A.** 100 % of control

**Q.** What about the T/C (dose: 300.0 mg/kg/injection, schedule: Q01DX001 (ip), vehicle: saline) of the same compound?
**A.** 108 % of control

**Q.** And the T/C (dose: 300.0 mg/kg/injection, schedule: Q04DX003 (ip), vehicle: saline)?
**A.** 91 % of control

**Q.** For CCCCCCCCCCCCCCCC(=O)OC, which T/C [2] is on record?
**A.** 105 % of control

**Q.** And the T/C [3]?
**A.** 98 % of control

**Q.** What about the T/C [4] of the same compound?
**A.** 101 % of control

**Q.** What about the T/C [5] of the same compound?
**A.** 93 % of control

**Q.** And the T/C [6]?
**A.** 97 % of control

**Q.** What about the T/C [7] of the same compound?
**A.** 98 % of control

**Q.** Which results are given for O=C(N/N=C\c1ccc(N(CCCl)CCCl)cc1[N+](=O)[O-])c1cccnc1?
**A.** T/C (dose: 50.0 mg/kg/injection, schedule: Q01DX001 (ip), vehicle: saline): 94 % of control; T/C [8]: 113 % of control; T/C (dose: 200.0 mg/kg/injection, schedule: Q01DX001 (ip), vehicle: saline): 92 % of control

**Q.** Which T/C (dose: 180.0 mg/kg/injection, schedule: Q01DX009 (ip), vehicle: water) does the source give for [N-]=[N+]=CC(=O)NCC(=O)NN=C(CO)CO here?
**A.** 118 % of control

**Q.** And the T/C (dose: 265.0 mg/kg/injection, schedule: Q01DX009 (ip), vehicle: water)?
**A.** 122 % of control

**Q.** What does the source list for NS(=O)(=O)N1CCCCC1?
**A.** T/C (dose: 9.5 mg/kg/injection, schedule: Q01DX001 (ip), vehicle: saline): 104 % of control; T/C (dose: 19.0 mg/kg/injection, schedule: Q01DX001 (ip), vehicle: saline): 104 % of control; T/C (dose: 38.0 mg/kg/injection, schedule: Q01DX001 (ip), vehicle: saline): 95 % of control

**Q.** CCOC(=O)Nc1cc2c(nnn2C(c2ccccc2)c2ccccc2)c(N)n1 was tested. Which T/C (dose: 5.0 mg/kg/injection, schedule: Q01DX001 (ip), vehicle: other) did it give?
**A.** 112 % of control

**Q.** What about the T/C (dose: 10.0 mg/kg/injection, schedule: Q01DX001 (ip), vehicle: other) of the same compound?
**A.** 98 % of control

**Q.** What about the T/C (dose: 20.0 mg/kg/injection, schedule: Q01DX001 (ip), vehicle: other) of the same compound?
**A.** 93 % of control

**Q.** What about the T/C (dose: 40.0 mg/kg/injection, schedule: Q01DX001 (ip), vehicle: other) of the same compound?
**A.** 91 % of control

**Q.** What about the T/C (dose: 80.0 mg/kg/injection, schedule: Q01DX001 (ip), vehicle: other) of the same compound?
**A.** 86 % of control

**Q.** Which results are given for COc1cc(Br)c(CC2c3cc(OC)c(OC)cc3CC[N+]2(C)C)cc1OC (centres undefined)?
**A.** T/C (dose: 100.0 mg/kg/injection, schedule: Q01DX001 (ip), vehicle: water): 100 % of control; T/C (dose: 100.0 mg/kg/injection, schedule: Q01DX009 (ip), vehicle: water): 101 % of control; T/C (dose: 100.0 mg/kg/injection, schedule: Q04DX003 (ip), vehicle: water): 100 % of control; T/C (dose: 200.0 mg/kg/injection, schedule: Q01DX001 (ip), vehicle: water): 102 % of control; T/C (dose: 200.0 mg/kg/injection, schedule: Q01DX009 (ip), vehicle: water): 87 % of control; T/C (dose: 200.0 mg/kg/injection, schedule: Q04DX003 (ip), vehicle: water): 97 % of control; T/C (dose: 400.0 mg/kg/injection, schedule: Q01DX001 (ip), vehicle: water): 100 % of control; T/C (dose: 400.0 mg/kg/injection, schedule: Q04DX003 (ip), vehicle: water): 91 % of control
